This passage reports IC50 results from BindingDB's records for doi:10.1016/S0960-894X(00)80098-0 (1993).

Molecules are shown by their SMILES.

This test can be described thus: Tested for the NMDA antagonist activity using a functional assay, by protection of cultured hippocampus neurons from the toxic effects of extracellularly applied glutamate.
With `OC(CN1CCC(Cc2ccc(F)cc2)CC1)c1ccc(Cl)cc1` (stereo not given), the midpoint of inhibition, the IC50, lay at 1000 nM. In other words, the single-digit micromolar range.

`C[C@@H]([C@H](O)c1ccc2c(c1)CC(=O)N2)N1CCC(Cc2ccccc2)CC1` [5-[(1R,2S)-2-(4-Benzyl-piperidin-1-yl)-1-hydroxy-propyl]-1,3-dihydro-indol-2-one]: it took 231 nM to reach half-maximal inhibition (IC50). This IC50 lies about 4.3-fold lower than the previous one.

In the case of `C[C@@H]([C@@H](O)c1ccc2c(c1)CC(=O)N2)N1CCC(c2ccccc2)CC1` [5-[(1S,2S)-1-Hydroxy-2-(4-phenyl-piperidin-1-yl)-propyl]-1,3-dihydro-indol-2-one], the half-inhibitory concentration (IC50) (usually the concentration that inhibits the measured activity by half) was determined as 40 nM. Against the preceding compound, the IC50 is about 5.8-fold lower.

As to `C[C@@H]([C@@H](O)c1ccc2c(c1)CC(=O)N2)N1CCC(Cc2ccccc2)CC1` [5-[(1S,2S)-2-(4-Benzyl-piperidin-1-yl)-1-hydroxy-propyl]-1,3-dihydro-indol-2-one], the midpoint of inhibition, the IC50, lay at 111 nM.

Turning to `O=C1Cc2cc(C(O)CN3CCC(Cc4ccc(F)cc4)CC3)ccc2N1` (stereo not given) [5-{2-[4-(4-Fluoro-benzyl)-piperidin-1-yl]-1-hydroxy-ethyl}-1,3-dihydro-indol-2-one], inhibition was half-maximal at 600 nM (IC50).
